Results: US20240140949A1, “ANTI-CANCER PHARMACEUTICAL COMPOSITION FOR TARGETING HEAT SHOCK PROTEIN 70, CONTAINING INDOLOQUINAZOLIDINE ALKALOID” (SEOUL NATIONAL UNIVERSITY R & DB FOUNDATION, priority 2021, published 2024)

Columns and labels:
lung cancer cell = assay: Cancer cell survival inhibitory activity (MTT assay) of EV501 to EV509; format: cell-based; conditions: 0.5 μM (lowest concentration), MTT assay (FIG. 18)
Protocol: (§1) The cancer cell lines were seeded in a 96-well plate at a density of 2×10^3 cells per well and cultured for 24 hours to allow the cells to attach. The cells were then treated with diluted drugs in media for 3 days and cell viability was assessed using MTT assay or crystal violet (CB) assay. For the MTT assay, MTT solution dissolved in PBS was added to achieve a final concentration of 500 μg/mL and incubated for 2-4 hours, after which the medium was removed and the formed formazan was dissolved in 100% DMSO, followed by measuring the absorbance at 570 nm. For the CB assay, the cultured cells were fixed with 100% methanol, stained with a 0.025% crystal violet solution, dissolved in 1% SDS solution, and the absorbance was measured at 570 nm. Cell viability was calculated as the percentage of absorbance change in drug-treated group compared to vehicle (DMSO) treated control group.

H1299 lung cancer cells = assay: Cell viability (MTT assay) in H1299 cells; format: cell-based, human; conditions: 0.5-10 μM, 3 days, MTT (FIG. 9-12)
Excerpt: (§2) Human lung cancer cell lines (H1299, H460, A549, H226B, and PC9), breast cancer cell line (MDA-MB-231), liver cancer cell line (Hep3B), kidney cancer cell line (786-0), prostate cancer cell lines (DU145 and PC-3), and mouse lung cancer cell line (Lewis Lung Carcinoma, LLC) were purchased from ATCC (American Type Culture Collection) or obtained from Dr. John V. Heymach of MD Anderson Cancer Center, USA. The human head and neck cancer cell line (UMSCC38) was obtained from Dr. Jeffrey N. Myers (MD Anderson Cancer Center, USA). Human colon cancer cell lines (HCT116 and HT-29) and glioblastoma cell line (U87MG) were obtained from Professor Sang Kook Lee (Seoul National University College of Pharmacy). The human kidney cancer cell line (Caki-1), and gastric cancer cell line (SNU-638) were purchased from the Korean Cell Line Bank. The chemotherapy-resistant cells [paclitaxel-resistant H460 cells (H460/PcR), paclitaxel-resistant H226B cells (H226B/PcR), cisplatin-resistant H1299 cells (H1299/CsR), pemetrexed-resistant H1299 cells (H1299/PmR)] and molecularly targeted anticancer therapy-resistant cells [erlotinib-resistant PC9 cells (PC9/ER)] were constructed by treating the respective anti-cancer drugs for more than three months. H1299, H460, H226B, PC9, Hep3B, 786-0, DU145, PC-3, HCT116, HT-29, SNU-638, chemotherapeutic resistant cells, and molecularly targeted anticancer therapy-resistant cells were cultured in RPMI 1640 media containing 10% fetal bovine serum (FBS) and antibiotics at 37° C. under 5% CO2 conditions, while MDA-MB-231, UMSCC38, U87MG, Caki-1 were cultured in DMEM media containing 10% FBS and antibiotics at 37° C. under 5% CO2 conditions. Cells were passaged 1-2 times per week.
as §1

lung cancer cells = assay: Anchorage-independent (soft agar) colony formation; format: cell-based; conditions: soft agar (FIG. 20)
Protocol: Before the experiment, a 1% agar solution made with low-melting agar was placed in a 24-well plate and hardened at room temperature to create a bottom agar. The cells were diluted with medium to seed 2×10^3 cells per well in a 24-well plate. Then, it was mixed with a 1% agar solution to create a final 0.4% agar solution, which was then solidified at room temperature in the plate containing the bottom agar. Medium containing the drug was added on top of the cells mixed in the agar and cultured for 1-3 weeks at 37° C. in a 5% CO2 condition, after which the formed colonies were stained with an MTT solution of 250-500 μg/mL and counted. The colony formation inhibitory effect of the drug was calculated by expressing the change in colony numbers in the drug-treated group compared to the vehicle (DMSO) treated control group as a percentage.

cancer cell = assay: Cancer cell survival inhibitory activity (crystal violet assay); format: cell-based; conditions: crystal violet assay (FIG. 19)
Protocol: as §1

[1] = system: various lung cancer cell lines and chemotherapeutic agent-resistant lung cancer cell lines; assay: Cell viability in lung cancer and chemotherapeutic drug-resistant lung cancer cell lines; format: cell-based, human; conditions: lung cancer and chemotherapeutic agent-resistant lung cancer cell lines (FIG. 13, 15)
Excerpt: (§3) Human lung cancer cell lines (H1299, H460, A549, H226B, and PC9), breast cancer cell line (MDA-MB-231), liver cancer cell line (Hep3B), kidney cancer cell line (786-0), prostate cancer cell lines (DU145 and PC-3), and mouse lung cancer cell line (Lewis Lung Carcinoma, LLC) were purchased from ATCC (American Type Culture Collection) or obtained from Dr. John V. Heymach of MD Anderson Cancer Center, USA. The human head and neck cancer cell line (UMSCC38) was obtained from Dr. Jeffrey N. Myers (MD Anderson Cancer Center, USA). […]
as §1, with “Cell viability was calculated as the percentage of absorbance change in drug-treated group compared to vehicle (DMSO) treated control group.” left out

[2] = system: various lung cancer cells and chemotherapeutic drug-resistant lung cancer cell lines; assay: Anchorage-dependent colony formation in lung cancer and drug-resistant lung cancer cell lines; format: cell-based, human; conditions: 0.5 μM (FIG. 14, 16)
Excerpt: as §3, with “USA). Human colon cancer cell lines (HCT116 and HT-29) and glioblastoma cell line (U87MG) were obtained from Professor Sang Kook Lee (Seoul National University College of Pharmacy). The human kidney cancer cell line (Caki-1), and gastric cancer cell line (SNU-638) were purchased from the Korean Cell Line Bank.” for “USA).”
Cancer cell lines were seeded in a 24-well or 6-well plate at 100-250 cells per well and allowed to attach, followed by treatment with drugs diluted in media and cultured for 2-3 weeks. Formed colonies were stained with crystal violet and counted. The drug's colony formation inhibitory effect was calculated as the percentage of colony number change in the drug-treated group compared to the vehicle (DMSO)-treated control group.

[3] = system: Hsp70 protein and Hsp70/Hsp90 client proteins (Akt, Src, and MEK); assay: Western blot of Hsp70 and client proteins in lung cancer cells; format: cell-based, human; conditions: for expression of Hsp70 protein and Hsp70/Hsp90 client proteins (Akt, Src, and MEK): H1299 cells, up to 250 nM, 2 days (FIG. 17)
Excerpt: as §2
The cells treated with the drug were treated with RIPA lysis buffer [50 mM Tris-HCl (pH 7.4), 150 mM NaCl, 1 mM EDTA, 0.25% sodium deoxycholate, 1% Triton X-100, 100 mM NaF, 5 mM Na3VO4, 1 mM PMSF, 1 μg/mL aprotinin, 1 μg/mL leupeptin, and 1 μg/mL pepstatin], followed by incubation on ice for 10 minutes and centrifugation at 13,000 rpm for 15 minutes to extract proteins. The proteins were quantified by BCA assay and equal amounts of proteins were separated by 8-10% SDS-PAGE. The separated proteins were transferred to a PVDF membrane, and the areas of the membrane not transferred with protein were blocked by incubating the membrane in 5% skim milk solution or 3% BSA solution diluted in TBST at room temperature for 1 hour. The membrane was then incubated in a primary antibody solution diluted 1:1,000 in 3% BSA at 4° C. for more than 12 hours. The primary antibody used was either anti-Hsp70 or anti-actin, with the anti-Hsp70 antibody obtained from Enzo Life Science and the actin antibody obtained from Santa Cruz Biotechnology. After incubation, the membrane was washed for 1 hour while changing TBST several times, and then incubated for 1 hour at room temperature with a secondary antibody (GeneTex) diluted 1:5,000 in 5% skim milk solution. After incubation, the membrane was washed for 1 hour while changing TBST several times, and then treated with an enhanced chemiluminescence (ECL) solution. The expression of Hsp70 or Actin protein was detected using LAS4000.

C=CCN1c2ccccc2C(=O)N2CCc3c([nH]c4c([N+](=O)[O-])cc([N+](=O)[O-])cc34)C21 (stereo not drawn) [EV503]
melting point: 229 to 231 °C
inhibition at 0.5 µM (lung cancer cell): > 50%

C#CCN1c2ccccc2C(=O)N2CCc3c([nH]c4c([N+](=O)[O-])cc([N+](=O)[O-])cc34)C21 (stereo not drawn) [EV506]
melting point: 232 to 234 °C
inhibition at 0.5 µM (lung cancer cell): > 50%

CN1c2ccc(Br)cc2C(=O)N2CCc3c([nH]c4ccccc34)C21 (stereo not drawn) [EV306]
lung cancer cell death (cell viability) (H1299 lung cancer cells): excellent effects

C=C(C)CN1c2ccccc2C(=O)N2CCc3c([nH]c4ccccc34)C21 (stereo not drawn) [EV218, 14N-(2-methyl)allyl evodiamine]
lung cancer cell death (cell viability) (H1299 lung cancer cells): excellent effects

C=C(C)CN1c2ccccc2C(=O)N2CCc3c([nH]c4ccc(O)cc34)C21 (stereo not drawn) [EV509]
melting point: 211 to 213 °C
anchorage-independent colony formation (lung cancer cells): effectively inhibited
inhibition at 0.5 µM (lung cancer cell): > 65%
cancer cell survival inhibitory activity (cancer cell): as excellent as EV507

COc1ccc2c(c1)C(=O)N1CCc3c([nH]c4ccccc34)C1N2C (stereo not drawn) [EV302]
lung cancer cell death (cell viability) (H1299 lung cancer cells): excellent effects

CN1c2ccccc2C(=O)N2CCc3c([nH]c4ccc([N+](=O)[O-])cc34)C21 (stereo not drawn) [EV401]
lung cancer cell death (cell viability) (H1299 lung cancer cells): excellent effects

CC#CCN1c2ccccc2C(=O)N2CCc3c([nH]c4ccccc34)C21 (stereo not drawn) [EV219]
lung cancer cell death (cell viability) (H1299 lung cancer cells): excellent effects

C#CCN1c2ccccc2C(=O)N2CCc3c([nH]c4ccccc34)C21 (stereo not drawn) [EV205, 14N-propagyl Evodiamine]
lung cancer cell death (cell viability) (H1299 lung cancer cells): excellent effects

C=C(C)CN1c2ccccc2C(=O)N2CCc3c([nH]c4ccc([N+](=O)[O-])cc34)C21 (stereo not drawn) [EV502]
melting point: 261 to 262 °C
inhibition at 0.5 µM (lung cancer cell): > 50%

CCCOc1ccc2[nH]c3c(c2c1)CCN1C(=O)c2ccccc2N(C)C31 (stereo not drawn) [EV413]
lung cancer cell death (cell viability) (H1299 lung cancer cells): excellent effects

CN1c2cccc(Cl)c2C(=O)N2CCc3c([nH]c4ccccc34)C21 (stereo not drawn) [EV308]
lung cancer cell death (cell viability) (H1299 lung cancer cells): excellent effects

CC(C)=CCN1c2ccccc2C(=O)N2CCc3c([nH]c4ccccc34)C21 (stereo not drawn) [EV217]
lung cancer cell death (cell viability) (H1299 lung cancer cells): excellent effects

COc1cccc2c1C(=O)N1CCc3c([nH]c4ccccc34)C1N2C (stereo not drawn) [EV309]
lung cancer cell death (cell viability) (H1299 lung cancer cells): excellent effects

CN1c2ccccc2C(=O)N2CCc3c([nH]c4ccc(O)cc34)C21 (stereo not drawn) [EV408]
lung cancer cell death (cell viability) (H1299 lung cancer cells): excellent effects
growth-inhibitory effect [1]: excellent growth-inhibitory effects
formation of colonies under anchorage-dependent (adherent) conditions [2]: significantly inhibited
expression of Hsp70 protein and Hsp70/Hsp90 client proteins (Akt, Src, and MEK) [3]: clear reduction

C=CCN1c2ccccc2C(=O)N2CCc3c([nH]c4ccc([N+](=O)[O-])cc34)C21 (stereo not drawn) [EV501]
melting point: 186 to 188 °C
anchorage-independent colony formation (lung cancer cells): effectively inhibited
inhibition at 0.5 µM (lung cancer cell): > 65%
cancer cell survival inhibitory activity (cancer cell): as excellent as EV507
expression of Hsp70 and Src and Akt (client proteins of Hsp70/Hsp90) ([3]; Western blot (FIG. 21)): decrease

C=C(C)CN1c2ccccc2C(=O)N2CCc3c([nH]c4c([N+](=O)[O-])cc([N+](=O)[O-])cc34)C21 (stereo not drawn) [EV504]
melting point: 175 to 177 °C
cancer cell survival inhibitory activity (cancer cell): as excellent as EV507

CN1c2ccccc2C(=O)N2CCc3c([nH]c4c([N+](=O)[O-])cc([N+](=O)[O-])cc34)C21 (stereo not drawn) [EV402]
lung cancer cell death (cell viability) (H1299 lung cancer cells): excellent effects

C#CCN1c2ccccc2C(=O)N2CCc3c([nH]c4ccc(O)cc34)C21 (stereo not drawn) [EV508]
melting point: 230 to 232 °C
anchorage-independent colony formation (lung cancer cells): effectively inhibited
inhibition at 0.5 µM (lung cancer cell): > 65%
cancer cell survival inhibitory activity (cancer cell): as excellent as EV507

Cc1ccc2c(c1)C(=O)N1CCc3c([nH]c4ccccc34)C1N2C (stereo not drawn) [EV307]
lung cancer cell death (cell viability) (H1299 lung cancer cells): excellent effects

CN1c2ccc(I)cc2C(=O)N2CCc3c([nH]c4ccccc34)C21 (stereo not drawn) [EV310]
lung cancer cell death (cell viability) (H1299 lung cancer cells): excellent effects

C=CCN1c2ccccc2C(=O)N2CCc3c([nH]c4ccccc34)C21 (stereo not drawn) [EV206, 14N-Allyl Evodiamine]
lung cancer cell death (cell viability) (H1299 lung cancer cells): excellent effects
growth-inhibitory effect [1]: excellent growth-inhibitory effects
formation of colonies under anchorage-dependent (adherent) conditions [2]: significantly inhibited
expression of Hsp70 protein and Hsp70/Hsp90 client proteins (Akt, Src, and MEK) [3]: clear reduction

Cc1ccc2[nH]c3c(c2c1)CCN1C(=O)c2ccccc2N(C)C31 (stereo not drawn) [EV406]
lung cancer cell death (cell viability) (H1299 lung cancer cells): excellent effects

COc1ccc2[nH]c3c(c2c1)CCN1C(=O)c2ccccc2N(C)C31 (stereo not drawn) [EV403]
lung cancer cell death (cell viability) (H1299 lung cancer cells): excellent effects

CN1c2ccccc2C(=O)N2CCc3c([nH]c4ccc(Cl)cc34)C21 (stereo not drawn) [EV407]
lung cancer cell death (cell viability) (H1299 lung cancer cells): excellent effects

CN1c2ccc(F)cc2C(=O)N2CCc3c([nH]c4ccccc34)C21 (stereo not drawn) [EV301]
lung cancer cell death (cell viability) (H1299 lung cancer cells): excellent effects

CN1c2ccc(Cl)cc2C(=O)N2CCc3c([nH]c4ccccc34)C21 (stereo not drawn) [EV304]
lung cancer cell death (cell viability) (H1299 lung cancer cells): excellent effects

CN1c2ccc([N+](=O)[O-])cc2C(=O)N2CCc3c([nH]c4ccccc34)C21 (stereo not drawn) [EV303]
lung cancer cell death (cell viability) (H1299 lung cancer cells): excellent effects
